#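 In this assay, cells in 96-well plates receive the compound at five concentrations for 48 hours. Endpoints are linearly interpolated between the surrounding concentrations. GI50 is the concentration that inhibits growth by half. TGI is the concentration that stops growth completely.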
# What was measured:
# Test in all cases: growth of human tumour cells (NCI), 48 h
# NCI-H460 lung = test system: NCI-H460 lung
# RXF 393 renal = test system: RXF 393 renal
# SK-OV-3 ovarian = test system: SK-OV-3 ovarian
# MDA-MB-435 = test system: MDA-MB-435
# SF-295 CNS = test system: SF-295 CNS
# SNB-75 CNS = test system: SNB-75 CNS
# T-47D breast = test system: T-47D breast
# K-562 leukemia = test system: K-562 leukemia
# BT-549 breast = test system: BT-549 breast
# IGROV1 ovarian = test system: IGROV1 ovarian
# SR leukemia = test system: SR leukemia
# TK-10 renal = test system: TK-10 renal
# HOP-92 NSCLC = test system: HOP-92 NSCLC
# CCRF-CEM leukemia = test system: CCRF-CEM leukemia
# M14 melanoma = test system: M14 melanoma
# NCI-H23 lung = test system: NCI-H23 lung
# MDA-MB-231 breast = test system: MDA-MB-231 breast
# SW-620 colon = test system: SW-620 colon
# ACHN renal = test system: ACHN renal
# NCI-H522 lung = test system: NCI-H522 lung
# OVCAR-8 ovarian = test system: OVCAR-8 ovarian
# KM12 colon = test system: KM12 colon
# SK-MEL-2 melanoma = test system: SK-MEL-2 melanoma
# SN12C renal = test system: SN12C renal
# UO-31 renal = test system: UO-31 renal
# UACC-257 melanoma = test system: UACC-257 melanoma
# SF-539 CNS = test system: SF-539 CNS
# HS 578T breast = test system: HS 578T breast
# OVCAR-4 ovarian = test system: OVCAR-4 ovarian
# SF-268 CNS = test system: SF-268 CNS
# A498 renal = test system: A498 renal
# HOP-62 NSCLC = test system: HOP-62 NSCLC
# MOLT-4 leukemia = test system: MOLT-4 leukemia
# DU-145 prostate = test system: DU-145 prostate
# HCT-15 colon = test system: HCT-15 colon
# MCF7 breast = test system: MCF7 breast
# PC-3 prostate = test system: PC-3 prostate
# HT29 colon = test system: HT29 colon
# HL-60(TB) leukemia = test system: HL-60(TB) leukemia
# SK-MEL-5 melanoma = test system: SK-MEL-5 melanoma
# NCI-H226 lung = test system: NCI-H226 lung
# U251 CNS = test system: U251 CNS
# A549 NSCLC = test system: A549 NSCLC
# NCI/ADR-RES ovarian = test system: NCI/ADR-RES ovarian
# SK-MEL-28 melanoma = test system: SK-MEL-28 melanoma
# RPMI-8226 leukemia = test system: RPMI-8226 leukemia
# EKVX NSCLC = test system: EKVX NSCLC
# SNB-19 CNS = test system: SNB-19 CNS
# UACC-62 melanoma = test system: UACC-62 melanoma
# COLO 205 colon = test system: COLO 205 colon
# OVCAR-5 ovarian = test system: OVCAR-5 ovarian
# HCT-116 colon = test system: HCT-116 colon
# LOX IMVI melanoma = test system: LOX IMVI melanoma
# MALME-3M melanoma = test system: MALME-3M melanoma
# CAKI-1 renal = test system: CAKI-1 renal
# OVCAR-3 ovarian = test system: OVCAR-3 ovarian
# 786-0 renal = test system: 786-0 renal
# HCC-2998 colon = test system: HCC-2998 colon
smiles,measurement,setting,value
C[C@H](NC(=O)[C@@H]1CSSC[C@@H](NC(=O)c2nc3ccccc3cc2O)C(=O)NCC(=O)N1C)c1ccccc1,GI50,NCI-H460 lung,1.25 µM
same,TGI,NCI-H460 lung,7.98 µM
same,GI50,RXF 393 renal,1.31 µM
same,TGI,RXF 393 renal,3.06 µM
same,GI50,SK-OV-3 ovarian,5.59 µM
same,TGI,SK-OV-3 ovarian,21.2 µM
same,GI50,MDA-MB-435,0.737 µM
same,TGI,MDA-MB-435,6.59 µM
same,GI50,SF-295 CNS,7.44 µM
same,TGI,SF-295 CNS,16.3 µM
same,GI50,SNB-75 CNS,7.62 µM
same,TGI,SNB-75 CNS,43.1 µM
same,GI50,T-47D breast,1.11 µM
same,TGI,T-47D breast,3.79 µM
same,GI50,K-562 leukemia,0.663 µM
same,TGI,K-562 leukemia,3.13 µM
same,GI50,BT-549 breast,6.88 µM
same,TGI,BT-549 breast,16.1 µM
same,GI50,IGROV1 ovarian,2.59 µM
same,TGI,IGROV1 ovarian,12.4 µM
same,GI50,SR leukemia,0.17 µM
same,TGI,SR leukemia,0.877 µM
same,GI50,TK-10 renal,8.06 µM
same,TGI,TK-10 renal,15.5 µM
same,GI50,HOP-92 NSCLC,9.69 µM
same,TGI,HOP-92 NSCLC,18.6 µM
same,GI50,CCRF-CEM leukemia,1.89 µM
same,TGI,CCRF-CEM leukemia,10.5 µM
same,GI50,M14 melanoma,0.318 µM
same,TGI,M14 melanoma,9.76 µM
same,GI50,NCI-H23 lung,5.14 µM
same,TGI,NCI-H23 lung,12.6 µM
same,GI50,MDA-MB-231 breast,1.94 µM
same,TGI,MDA-MB-231 breast,7.84 µM
same,GI50,SW-620 colon,1.85 µM
same,TGI,SW-620 colon,6.26 µM
same,GI50,ACHN renal,4.63 µM
same,TGI,ACHN renal,12.8 µM
same,GI50,NCI-H522 lung,3.13 µM
same,TGI,NCI-H522 lung,10.2 µM
same,GI50,OVCAR-8 ovarian,5.16 µM
same,TGI,OVCAR-8 ovarian,17.7 µM
same,GI50,KM12 colon,0.629 µM
same,TGI,KM12 colon,8.56 µM
same,GI50,SK-MEL-2 melanoma,2.55 µM
same,TGI,SK-MEL-2 melanoma,10.1 µM
same,GI50,SN12C renal,5.62 µM
same,TGI,SN12C renal,14.1 µM
same,GI50,UO-31 renal,5.76 µM
same,TGI,UO-31 renal,13.3 µM
same,GI50,UACC-257 melanoma,7.63 µM
same,TGI,UACC-257 melanoma,24.6 µM
same,GI50,SF-539 CNS,1.63 µM
same,TGI,SF-539 CNS,9.13 µM
same,GI50,HS 578T breast,11.2 µM
same,TGI,HS 578T breast,34.1 µM
same,GI50,OVCAR-4 ovarian,7.95 µM
same,TGI,OVCAR-4 ovarian,18.3 µM
same,GI50,SF-268 CNS,0.43 µM
same,TGI,SF-268 CNS,11 µM
same,GI50,A498 renal,15 µM
same,TGI,A498 renal,33.5 µM
same,GI50,HOP-62 NSCLC,11.6 µM
same,TGI,HOP-62 NSCLC,20.7 µM
same,GI50,MOLT-4 leukemia,0.894 µM
same,TGI,MOLT-4 leukemia,3.27 µM
same,GI50,DU-145 prostate,5.78 µM
same,TGI,DU-145 prostate,12.7 µM
same,GI50,HCT-15 colon,2.55 µM
same,TGI,HCT-15 colon,9.62 µM
same,GI50,MCF7 breast,0.835 µM
same,TGI,MCF7 breast,2.47 µM
same,GI50,PC-3 prostate,5.98 µM
same,TGI,PC-3 prostate,13.5 µM
same,GI50,HT29 colon,1.13 µM
same,TGI,HT29 colon,3.35 µM
same,GI50,HL-60(TB) leukemia,1.2 µM
same,TGI,HL-60(TB) leukemia,4.78 µM
same,GI50,SK-MEL-5 melanoma,0.582 µM
same,TGI,SK-MEL-5 melanoma,3.82 µM
same,GI50,NCI-H226 lung,8.87 µM
same,TGI,NCI-H226 lung,17.4 µM
same,GI50,U251 CNS,2.38 µM
same,TGI,U251 CNS,7.46 µM
same,GI50,A549 NSCLC,7.06 µM
same,TGI,A549 NSCLC,15.8 µM
same,GI50,NCI/ADR-RES ovarian,11 µM
same,TGI,NCI/ADR-RES ovarian,50 µM
same,GI50,SK-MEL-28 melanoma,0.906 µM
same,TGI,SK-MEL-28 melanoma,9.83 µM
same,GI50,RPMI-8226 leukemia,5.67 µM
same,TGI,RPMI-8226 leukemia,21.5 µM
same,GI50,EKVX NSCLC,3.48 µM
same,TGI,EKVX NSCLC,11.8 µM
same,GI50,SNB-19 CNS,7.24 µM
same,TGI,SNB-19 CNS,19.4 µM
same,GI50,UACC-62 melanoma,5.6 µM
same,TGI,UACC-62 melanoma,13.2 µM
same,GI50,COLO 205 colon,0.963 µM
same,TGI,COLO 205 colon,2.34 µM
same,GI50,OVCAR-5 ovarian,4.35 µM
same,TGI,OVCAR-5 ovarian,12.1 µM
same,GI50,HCT-116 colon,1.63 µM
same,TGI,HCT-116 colon,5.15 µM
same,GI50,LOX IMVI melanoma,0.649 µM
same,TGI,LOX IMVI melanoma,1.52 µM
same,GI50,MALME-3M melanoma,6.08 µM
same,TGI,MALME-3M melanoma,14 µM
same,GI50,CAKI-1 renal,7.24 µM
same,TGI,CAKI-1 renal,18.5 µM
same,GI50,OVCAR-3 ovarian,0.584 µM
same,TGI,OVCAR-3 ovarian,1.35 µM
same,GI50,786-0 renal,2.45 µM
same,TGI,786-0 renal,9.78 µM
same,GI50,HCC-2998 colon,7.48 µM
same,TGI,HCC-2998 colon,17.1 µM

# Source: PubChem BioAssay (NCI)
